Values joined by “and” are separate entries in the source; they are usually repeats but may differ in a detail not shown here. Equal values may be shown once.
Row | SMILES | melting point
1 | COc1cc(C#N)cc(OC)c1OC [3,4,5-trimethoxybenzonitrile] | 94 °C
2 | CN(C)C(=S)SSC(=S)N(C)C [tetramethylthiuram disulfide] | 150 °C
3 | OC1(c2ccc(Cl)cc2)CCNCC1 [4-(4-chlorophenyl)-4-hydroxypiperidine] | 139 °C
4 | Nc1ccc(Br)cc1 [4-Bromoaniline] | 66 °C
5 | CN(C)/C=C/[N+](=O)[O-] [1-dimethylamino-2-nitroethylene] | 103 °C
6 | C(=NNc1ccccc1)C(=NNc1ccccc1)c1cccc(C(C=NNc2ccccc2)=NNc2ccccc2)c1 | 165 °C
7 | C[SiH]1O[SiH](C)O[SiH](C)O[SiH](C)O1 (stereo not given) [2,4,6,8-tetramethylcyclotetrasiloxane] | -69 °C
8 | Cc1c(C)c2c(c(C)c1O)CC[C@@](C)(CCC[C@H](C)CCC[C@H](C)CCCC(C)C)O2 | 2 °C
9 | Sc1nnc2ccccn12 [1,2,4-triazolo[4,3-a]pyridine-3-thiol] | 210 °C
10 | C=CCN1CC[C@]23CCCC[C@H]2[C@H]1Cc1ccc(O)cc13 [Levallorphan] | 181 °C
11 | Clc1cccc2cc3ccccc3cc12 [1-chloroanthracene] | 77 °C
12 | Nc1cc(Cl)ccc1[N+](=O)[O-] [5-Chlor-2-nitroanilin] | 119 °C
13 | CCN(Cc1ccc(Cl)nc1)/C(=C/[N+](=O)[O-])NC | 72 °C
14 | O=[N+]([O-])c1ccc(N/N=C/C2=C(/C=C/c3ccccc3)CCCC2)c([N+](=O)[O-])c1 | 163 °C
15 | O=C(CCCN1CCC2(CC1)C(=O)NCN2c1ccccc1)c1ccc(F)cc1 [spiperone] | 190 °C
16 | Oc1ccc(Br)cc1-c1ccno1 [4-bromo-2-(5-isoxazolyl)phenol] | 211 °C

Row | SMILES | melting point
17 | O=C(/C=C/c1ccccc1)c1ccccc1O [2'-hydroxychalcone] | 90 °C
18 | Cc1cccs1 [2-methylthiophene] | -63 °C
19 | O=C(O)c1ccc(O)cc1 [4-hydroxybenzoic_acid] | 217 °C
20 | N#Cc1ccccc1S(=O)(=O)Cl [2-cyanobenzenesulfonyl chloride] | 67 °C
21 | c1ccc2cc3cc4ccccc4cc3cc2c1 [naphthacene] | 357 °C
22 | Nc1ncccc1OCc1ccccc1 [2-amino-3-benzyloxypyridine] | 93 °C
23 | C[C@]12CCC(=O)C[C@@H]1CC[C@@H]1[C@@H]2CC[C@]2(C)[C@@H](O)CC[C@@H]12 [stanolone] | 181 °C
24 | CCOC(=O)C1(c2ccccc2)CCN(CCc2ccc(N)cc2)CC1 [anileridine] | 83 °C
25 | O=Cc1cc(F)c(F)c(F)c1 [3,4,5-trifluorobenzaldehyde] | 25 °C
26 | Cc1ccc(N)cc1C [3,4-dimethylaniline] | 51 °C
27 | CCc1ccccc1Br [1-bromo-2-ethylbenzene] | -68 °C
28 | O=C(O)c1ccc(F)cc1 [4-fluorobenzoic acid] | 185 °C
29 | ClC(Cl)(Cl)Cl [Tetrachloromethane] | -23 °C
30 | C=C1C[C@@H]2[C@H](CC[C@]3(C)C(=O)CC[C@@H]23)[C@@]2(C)C=CC(=O)C=C12 [Exemestane] | 155 °C
31 | Clc1ccc(-c2ccc(Cl)c(Cl)c2Cl)cc1Cl [PCB-105] | 117 °C
32 | Oc1ccc2ccccc2c1Br [1-bromo-2-naphthol] | 75 °C

Continued, values first:

Row | melting point | SMILES
33 | 259 °C | C[C@]12CC[C@@H]3c4ccc(O)cc4CC[C@H]3[C@@H]1CCC2=O [estrone]
34 | 58 °C | CCCCOC(=O)c1ccc(N)cc1 [Butyl 4-aminobenzoate]
35 | 59 °C | Cc1cc(Cl)cc(C=O)c1O [5-chloro-2-hydroxy-3-methylbenzaldehyde]
36 | 59 °C | O=Cc1cccc([N+](=O)[O-])c1 [m-nitrobenzaldehyde]
37 | 44 °C | CCOC(=O)c1ccc(OC)c(OC)c1 [ethyl 3,4-dimethoxybenzoate]
38 | 100 °C | CCOC(=O)c1ccc([N+](=O)[O-])o1 [ethyl 5-nitro-2-furoate]
39 | 103 °C | OC[C@@H](O)[C@@H](O)[C@@H](O)CO [adonitol]
40 | 95 °C | O=C(C(=O)c1ccccc1)c1ccccc1 [benzil]
41 | -33.9 °C and -33.7 °C | CCCCC(=O)O [pentanoic acid]
42 | 29 °C | COC(=O)Cc1ccc(Cl)c(Cl)c1 [methyl 3,4-dichlorophenylacetate]
43 | 145 °C | CC(c1cc2ccccc2s1)N(O)C(N)=O (stereo not given) [Zileuton]
44 | 335 °C | CC(=O)Nc1ccc2c(c1)NC(=O)C2 [N-(2-oxo-2,3-dihydro-1H-indol-6-yl)acetamide]
45 | 129 °C | O=C(/C=C/c1ccc(-c2ccc(Br)cc2)o1)c1ccccc1 [(2E)-3-[5-(4-Bromophenyl)-2-furyl]-1-phenylprop-2-en-1-one]
46 | -12 °C | COC(=O)c1ccccc1 [Methyl benzoate]
47 | 147 °C | CCN(CC)CCNC(=O)c1cc(Cl)c(N)cc1OC [metoclopramide]
48 | 31 °C | O=C(O)C1CCCCC1 [cyclohexanecarboxylic acid]
49 | 146 °C | CC(=O)N1CCN(c2ccc(OCC3COC(Cn4ccnc4)(c4ccc(Cl)cc4Cl)O3)cc2)CC1 (stereo not given) [ketoconazole]
50 | -7 °C | CCCCCCCCCCCCc1ccccc1 [Dodecylbenzene]
51 | 279 °C | COc1cc2nc(N3CCN(C(=O)c4ccco4)CC3)nc(N)c2cc1OC [Prazosin]

Row | melting point | SMILES
52 | 63.5 °C | CC=1CCCC(C)(C)C=1/C=CC(C)=CC=CC(/C)=CCO [Vitamin A]
53 | -15 °C | CC(C)=CCC/C(C)=C/CO [geraniol]
54 | 132 °C | CCCCCCCCCCCC[N+](C)(C)[O-] [Dodecyl(dimethyl)amine oxide]
55 | 226 °C | O[C@H]1[C@H](O)[C@@H](O)[C@H](O)[C@@H](O)[C@H]1O [myo-inositol]
56 | 71 °C | COC(=O)c1ccc(OC)c(F)c1 [methyl 3-fluoro-4-methoxybenzoate]
57 | 125 °C | O=C(O)c1ccccc1Nc1cccc(C(F)(F)F)c1 [Flufenamic Acid]
58 | 65 °C | C[Si]1(C)O[Si](C)(C)O[Si](C)(C)O1 [hexamethylcyclotrisiloxane]
59 | 47 °C | O=CNc1ccccc1 [N-Phenylformamide]
60 | 105 °C | CCCCC1C(=O)N(c2ccccc2)N(c2ccccc2)C1=O [phenylbutazone]
61 | 42 °C | CC1(C)c2ccccc2Oc2ccccc21 [9,9-dimethylxanthene]
62 | 169 °C | CC(=O)Nc1ccc(O)cc1 [paracetamol]
63 | -93 °C | CCCC(=O)OCC [Ethyl butyrate]
64 | 61 °C | CCOC(=O)c1cc(C)n(-c2ccc(C)cc2)c1C [OSM-S-30]
65 | 116 °C | N#CCc1ccc([N+](=O)[O-])cc1 [p-nitrophenylacetonitrile]
66 | 135 °C | C/C(=C\C(=O)O)c1ccc(C)cc1 [(2E)-3-(4-methylphenyl)but-2-enoic acid]
67 | 182 °C | Cc1ccc(C(=O)O)cc1 [p-toluic_acid]
68 | -169 °C | C=C [ethylene]
69 | 295 °C | O=C(O)c1ccc2ncccc2c1 [quinoline-6-carboxylic acid]
70 | 219 °C | CC(=O)Nc1ccc(/C=C/c2ccc(NC(C)=O)cc2)cc1 [N,N'-[(E)-ethene-1,2-diyldibenzene-4,1-diyl]diacetamide]

From the Bradley open melting point set (2014)
